Experimental data taken from patent US8008346B2, “Chemotherapeutic agents for inhibition of protein translation” (The Royal University for the Advancement of Learning/McGill …, priority 2006, dated 2011).

What was measured:
HeLa cells = assay: 35S-methionine incorporation (protein synthesis) in HeLa cells; type: cell-based
Description: FIG. 4. Effect of hippuristanol on protein, RNA and DNA synthesis in cells. A. Relative rate of ^35S-methionine incorporation as a function of hippuristanol concentration in HeLa cells. Cells were exposed to the indicated concentration of compound for 50 min., followed by a 10 min. labeling period with ^35S-methionine in the presence of compound. The rate of protein synthesis (TCA precipitable cpm) obtained in the presence of compound was normalized to the rate obtained in the presence of DMSO (which was set at 1). The rate of protein synthesis in the control reactions (containing DMSO vehicle) averaged ˜700,000 cpm/10 min. labeling period. Results are shown for two experiments and the error of the mean is presented. The relative rate of ^35S-methionine incorporation in HeLa cells exposed to 10 μM anisomycin (positive control) for 60 min. was ˜0.02 (data not shown). B. Effect of hippuristanol on protein (gray circles), DNA (open squares), and RNA (solid squares) synthesis in HeLa cells. The rate of macromolecular synthesis (TCA precipitable cpm for a 10 min. labeling period) obtained in the presence of 1 μM hippuristanol was normalized to the rate obtained in the presence of DMSO and is plotted. The results are shown for two experiments and the error of the mean is presented. The rate of protein, RNA and DNA synthesis in the control reactions (containing DMSO vehicle) averaged ˜900,000 cpm/10 min, ˜16,000 cpm/10 min. and 7,000 cpm/10 min labeling, respectively. The relative rate of ^35S-methionine incorporation by HeLa cells exposed to 10 μM anisomycin for 60 min. (positive control for inhibition of protein synthesis) was 0.02 (data not shown). The relative rate of ^3H-uridine incorporation by HeLa cells exposed to 50 μM actinomycin (positive control for inhibition of RNA synthesis) for 60 min. was 0.01 (data not shown). C. […] Gradients were analyzed by piercing the tube with a Brandel tube piercer, passing 60% sucrose through the bottom of the tube, and monitoring the absorbance of the material eluting from the tube using an ISCO UA-6 UV Detector.

eIF4Ac = eIF4Ac (Homo sapiens, UniProt P60842); assay: UV crosslinking of alpha-32P-ATP to native eIF4F; type: binding; conditions: 50 μM
Sequence of eIF4Ac (P60842 whole entry): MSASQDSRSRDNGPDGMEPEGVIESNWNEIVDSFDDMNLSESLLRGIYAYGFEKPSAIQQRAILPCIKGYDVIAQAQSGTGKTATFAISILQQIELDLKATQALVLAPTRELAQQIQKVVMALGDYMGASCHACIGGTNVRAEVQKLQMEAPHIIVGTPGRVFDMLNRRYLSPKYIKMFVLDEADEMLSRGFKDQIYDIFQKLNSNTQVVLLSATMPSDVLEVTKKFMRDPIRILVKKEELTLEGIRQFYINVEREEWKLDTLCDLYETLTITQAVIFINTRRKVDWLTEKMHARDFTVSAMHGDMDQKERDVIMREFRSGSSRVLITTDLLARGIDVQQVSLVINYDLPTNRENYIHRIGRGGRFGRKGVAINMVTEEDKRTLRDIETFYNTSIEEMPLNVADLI
Sequence of eIF4Ac (P06730 whole entry partner): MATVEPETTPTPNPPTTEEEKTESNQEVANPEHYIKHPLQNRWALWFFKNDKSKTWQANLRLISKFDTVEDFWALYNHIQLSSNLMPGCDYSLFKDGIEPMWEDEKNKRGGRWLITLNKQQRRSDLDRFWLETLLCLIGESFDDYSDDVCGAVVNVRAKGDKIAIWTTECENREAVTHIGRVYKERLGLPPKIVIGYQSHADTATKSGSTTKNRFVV
Sequence of eIF4Ac (Q04637 whole entry partner): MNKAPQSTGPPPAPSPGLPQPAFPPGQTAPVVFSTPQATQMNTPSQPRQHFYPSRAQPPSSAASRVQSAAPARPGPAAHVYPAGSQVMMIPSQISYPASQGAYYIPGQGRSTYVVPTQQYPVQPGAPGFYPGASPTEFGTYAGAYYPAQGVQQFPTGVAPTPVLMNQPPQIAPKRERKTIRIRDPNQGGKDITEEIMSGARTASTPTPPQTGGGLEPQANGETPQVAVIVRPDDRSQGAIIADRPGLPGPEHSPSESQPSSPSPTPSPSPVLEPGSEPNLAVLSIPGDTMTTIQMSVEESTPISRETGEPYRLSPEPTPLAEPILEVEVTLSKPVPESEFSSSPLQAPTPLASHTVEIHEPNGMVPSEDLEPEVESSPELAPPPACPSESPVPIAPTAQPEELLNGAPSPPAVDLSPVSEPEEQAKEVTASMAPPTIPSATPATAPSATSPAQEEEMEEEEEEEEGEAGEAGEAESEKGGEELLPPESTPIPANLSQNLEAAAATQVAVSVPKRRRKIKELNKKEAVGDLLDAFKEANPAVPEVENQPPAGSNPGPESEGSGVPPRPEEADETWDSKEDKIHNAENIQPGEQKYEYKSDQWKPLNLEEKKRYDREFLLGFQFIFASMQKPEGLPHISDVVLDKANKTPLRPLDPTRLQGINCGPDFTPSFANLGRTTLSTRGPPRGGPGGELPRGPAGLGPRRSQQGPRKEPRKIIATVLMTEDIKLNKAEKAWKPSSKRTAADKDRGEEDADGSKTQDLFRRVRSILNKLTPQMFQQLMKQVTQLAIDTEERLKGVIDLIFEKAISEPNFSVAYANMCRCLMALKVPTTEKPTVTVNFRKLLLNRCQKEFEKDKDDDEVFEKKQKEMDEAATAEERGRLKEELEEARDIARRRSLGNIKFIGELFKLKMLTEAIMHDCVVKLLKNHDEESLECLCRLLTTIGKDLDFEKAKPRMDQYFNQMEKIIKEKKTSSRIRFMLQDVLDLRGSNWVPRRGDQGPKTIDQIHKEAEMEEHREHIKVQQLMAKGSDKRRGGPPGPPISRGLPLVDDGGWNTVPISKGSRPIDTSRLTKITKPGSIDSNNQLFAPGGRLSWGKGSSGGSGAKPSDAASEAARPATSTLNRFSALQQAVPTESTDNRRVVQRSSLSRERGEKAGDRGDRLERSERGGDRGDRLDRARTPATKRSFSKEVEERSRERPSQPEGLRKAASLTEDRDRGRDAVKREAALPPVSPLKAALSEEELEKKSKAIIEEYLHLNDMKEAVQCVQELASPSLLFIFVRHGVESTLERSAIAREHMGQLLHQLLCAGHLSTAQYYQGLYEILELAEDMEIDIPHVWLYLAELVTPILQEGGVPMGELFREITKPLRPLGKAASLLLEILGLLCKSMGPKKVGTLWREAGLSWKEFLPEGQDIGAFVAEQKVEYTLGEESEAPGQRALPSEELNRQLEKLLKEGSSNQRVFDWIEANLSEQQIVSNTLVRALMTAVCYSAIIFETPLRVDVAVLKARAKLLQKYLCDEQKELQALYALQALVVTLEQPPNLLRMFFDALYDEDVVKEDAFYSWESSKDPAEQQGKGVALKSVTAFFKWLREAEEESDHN
Description: FIG. 7. Effects of hippuristanol on ATP hydrolysis, ATP binding, and RNA binding activities of eIF4A. A. Hippuristanol inhibits eIF4AIf RNA-dependent ATPase activity. The rate of ATP hydrolysis as a function of hippuristanol concentration is plotted relative to the rate obtained in the presence of vehicle (0.5% DMSO). ATP hydrolysis was measured in the presence of 2.5 μM poly (U) and monitored by thin layer chromatography. […] Samples were resolved by SDS-PAGE and subjected to autoradiography. C. The RNA binding activity of eIF4AIf is inhibited by hippuristanol. Oxidized ^32P-cap labeled CAT mRNA was incubated with recombinant eIF4AIf in the absence (lane 2) or presence of ATP (lanes 1, 3-6), 0.6 mM m^7GDP (lane 3), 0.6 mM GDP (lane 4), or 50 μM hippuristanol (lane 6). Following treatment with RNase A, samples were resolved by SDS-PAGE and subjected to autoradiography. The asterisk denotes the position of migration of a ˜30 kDa contaminant in the recombinant eIF4AIf preparation used as an internal loading reference. D. The RNA binding activity of eIF4Ac is inhibited by hippuristanol. Oxidized ^32P-cap labeled CAT mRNA was incubated with 0.7 μg of native eIF4F in the absence (lane 1) or presence (lane 2) of 50 μM hippuristanol. […]
Recombinant eIF4AI Purification and Assays. […] Quantifications were performed on a Fujix BAS2000 phosphoimager with a Fuji imaging screen. […]

C[C@H]1C[C@@]2(O[C@H]3C[C@H]4[C@@H]5CC[C@H]6C[C@H](O)CC[C@]6(C)[C@H]5[C@@H](O)C[C@]4(C)[C@H]3[C@@]2(C)O)OC1(C)C [Hippuristanol, hippuristanol]
eukaryotic protein synthesis (35S-methionine incorporation) (HeLa cells; FIG. 4): inhibits
reversibility of the inhibitory effect on protein synthesis (HeLa cells; HeLa cells, 1 μM for 60 min, then compound washed off): reversible
ATP crosslinking to eIF4Ac (eIF4Ac): does not affect
